Patent US7960410B2, “Method for treating insulin resistance, abdominal obesity, hypertension, hyperinsulinemia, and elevated blood lipids with a cortisol inhibitor” (Cortendo AB, priority 1994, dated 2011)
Where “and” joins values, the source holds several entries; their conditions need not be identical. Equal values may be shown once. Entries after “also recorded” stand apart in the source; their conditions may differ.

System: women with diabetes mellitus type II
Assay: Clinical tests of women with diabetes mellitus type II treated with ketoconazole
Format: in vivo, human
Conditions: for Serum-ASAT / Serum-ALAT / GIR (glucose infusion rate during euglycemic glucose clamp), indicating insulin sensitivity / Fasting serum total cholesterol / Diastolic blood pressure measured after 5 min. in supine position, 2 measurements averaged / Systolic blood pressure measured after 5 min. in supine position, 2 measurements averaged / Fasting blood glucose: after treatment
Experimental: We have investigated a group of people with diabetes mellitus type II.
Group 1 consists of 3 patients (mean age: 46 years) treated with ketoconazole for 2 weeks, administered orally 22:00 in the evening in the dose of 400 mg.
Group 2 consists of 5 patients (mean age: 51 years) treated with ketoconazole for 6 weeks, administered orally 22:00 in the evening in the dose of 400 mg. Results are expressed as mean values within groups.

[1] = diabetes mellitus type II patients, after vs before treatment

Serum-ASAT (Group 1: 400 mg orally 22:00 for 2 weeks, group mean (before: 0.36)): 0.33 μkat/L
Serum-ALAT (Group 1: 400 mg orally 22:00 for 2 weeks, group mean (before: 0.61)): 0.52 μkat/L
Serum-ASAT (Group 2: 400 mg orally 22:00 for 6 weeks, group mean (before: 0.26)): 0.25 μkat/L
Serum-ALAT (Group 2: 400 mg orally 22:00 for 6 weeks, group mean (before: 0.40)): 0.37 μkat/L
Structure (SMILES): CC(=O)N1CCN(c2ccc(OCC3COC(Cn4ccnc4)(c4ccc(Cl)cc4Cl)O3)cc2)CC1 (stereo not shown) [ketoconazole]
GIR (glucose infusion rate during euglycemic glucose clamp), indicating insulin sensitivity (Group 1: 400 mg orally 22:00 for 2 weeks, group mean (before: 0.9)): 1.85 mg glucose per minute divided by lean body mass
Fasting serum total cholesterol (Group 1: 400 mg orally 22:00 for 2 weeks, group mean (before: 5.80)): 5.67 mmol/L
Diastolic blood pressure measured after 5 min. in supine position, 2 measurements averaged (Group 1: 400 mg orally 22:00 for 2 weeks, group mean (before: 70)): 70 mm Hg
Systolic blood pressure measured after 5 min. in supine position, 2 measurements averaged (Group 1: 400 mg orally 22:00 for 2 weeks, group mean (before: 140)): 135 mm Hg
Fasting blood glucose (Group 1: 3 patients, 400 mg orally 22:00 for 2 weeks, group mean (before: 10.20)): 8.77 mmol/L
GIR (glucose infusion rate during euglycemic glucose clamp), indicating insulin sensitivity (Group 2: 400 mg orally 22:00 for 6 weeks, group mean (before: 2.97)): 4.32 mg glucose per minute divided by lean body mass
Fasting serum total cholesterol (Group 2: 400 mg orally 22:00 for 6 weeks, group mean (before: 4.80)): 4.10 mmol/L
Diastolic blood pressure measured after 5 min. in supine position, 2 measurements averaged (Group 2: 400 mg orally 22:00 for 6 weeks, group mean (before: 75)): 72 mm Hg
Systolic blood pressure measured after 5 min. in supine position, 2 measurements averaged (Group 2: 400 mg orally 22:00 for 6 weeks, group mean (before: 125)): 123 mm Hg
Fasting blood glucose (Group 2: 5 patients, 400 mg orally 22:00 for 6 weeks, group mean (before: 7.20)): 7.10 mmol/L
Effect on blood pressure (in words) [1]: decreasing blood pressure values
Effect on insulin sensitivity / insulin resistance (in words), euglycemic glucose clamp [1]: a reduction of the insulin insensitivity (resistance); also recorded: improved insulin sensitivity; also recorded: a remarkable improvement of insulin sensitivity
Effect on plasma cholesterol levels (in words) [1]: Reduced cholesterol levels in the plasma
Effect on blood glucose (in words) (diabetes mellitus type II patients, after vs before treatment for 2 and 6 weeks, fasting or 2 hours after i.v. glucose infusion): lower blood glucose after treatment compared to before treatment; also recorded: a decrease in blood glucose
Blood glucose 2 hours after start of an i.v. glucose infusion (human, in vivo): 7.90 mmol/L and 5.76 mmol/L
